Measured values taken from BindingDB's records for doi:10.3109/14756366.2011.578393 (Gitam University, 2012).

Molecular target: Carbonic anhydrase 2 (Homo sapiens, UniProt P00918)
Assay: Enzyme Inhibition Assay
Details: pH 7.4; 25 °C
Procedure: Saturated CO2 solutions in water at 25°C were used as substrate. Stock solutions of inhibitors were prepared at a concentration of 10 mM (in dimethyl sulphoxidewater 1:1, v/v) and dilutions up to 1 mM done with the assay buffer mentioned above. […] Inhibitor and enzyme solutions were preincubated together for 10 min at room temperature prior to assay, in order to allow for the formation of the E-I complex.

| IC50 | SMILES |
| --- | --- |
| 2000 µM | Cn1c(=O)c2c(ncn2C)n(C)c1=O |
| 2000 µM | O=C(/C=C/C=C/c1ccc2c(c1)OCO2)N1CCCCC1 [1-[(2E,4E)-5-(1,3-benzodioxol-5-yl)penta-2,4-dienoyl]piperidine] |
